Results: the NIST ThermoML archive (doi:10.1021/je700321s)
± gives the expanded uncertainty stated by the source.

Assay: xn = mol fraction of the nth substance listed
Details: Liquid, Vibrating tube method

CC(C)O [propan-2-ol] + O=C=O
Details	mass density [kg/m3]
308.11 K, 1814 kPa, x2 = 0.139	786.2 ± 0.8
308.11 K, 2252 kPa, x2 = 0.139	786.8 ± 0.8
308.11 K, 3003 kPa, x2 = 0.139	787.7 ± 0.8
308.11 K, 3206 kPa, x2 = 0.139	787.9 ± 0.8
308.11 K, 3427 kPa, x2 = 0.139	788.2 ± 0.8
308.11 K, 3514 kPa, x2 = 0.2003	792.7 ± 0.8
308.11 K, 3607 kPa, x2 = 0.139	788.4 ± 0.8
308.11 K, 4006 kPa, x2 = 0.2003	793.4 ± 0.8
308.11 K, 4089 kPa, x2 = 0.139	788.9 ± 0.8
308.11 K, 4510 kPa, x2 = 0.2003	794 ± 0.8
308.11 K, 5013 kPa, x2 = 0.139	789.9 ± 0.8
308.11 K, 5028 kPa, x2 = 0.2003	794.7 ± 0.8
308.11 K, 5503 kPa, x2 = 0.139	790.5 ± 0.8
308.11 K, 5504 kPa, x2 = 0.2003	795.3 ± 0.8
308.11 K, 6002 kPa, x2 = 0.6086	812.2 ± 0.8
308.11 K, 6006 kPa, x2 = 0.2003	795.9 ± 0.8
308.11 K, 6019 kPa, x2 = 0.139	791 ± 0.8
308.11 K, 6221 kPa, x2 = 0.6086	813 ± 0.8
308.11 K, 6400 kPa, x2 = 0.6086	813.7 ± 0.8
308.11 K, 6517 kPa, x2 = 0.2003	796.5 ± 0.8
308.11 K, 6518 kPa, x2 = 0.139	791.7 ± 0.8
308.11 K, 6606 kPa, x2 = 0.6086	814.5 ± 0.8
308.11 K, 6807 kPa, x2 = 0.6086	815.2 ± 0.8
308.11 K, 6824 kPa, x2 = 0.7943	793.7 ± 1.3
308.11 K, 7001 kPa, x2 = 0.7943	795.6 ± 0.9
308.11 K, 7009 kPa, x2 = 0.139	792.2 ± 0.8
308.11 K, 7019 kPa, x2 = 0.6086	815.9 ± 0.8
308.11 K, 7029 kPa, x2 = 0.2003	797.2 ± 0.8
308.11 K, 7203 kPa, x2 = 0.6086	816.7 ± 0.8
308.11 K, 7206 kPa, x2 = 0.7943	797.4 ± 0.8
308.11 K, 7400 kPa, x2 = 0.7943	799.2 ± 0.8
308.11 K, 7401 kPa, x2 = 0.6086	817.4 ± 0.8
308.11 K, 7512 kPa, x2 = 0.139	792.7 ± 0.8
308.11 K, 7516 kPa, x2 = 0.2003	797.7 ± 0.8
308.11 K, 7607 kPa, x2 = 0.6086	818.3 ± 0.8
308.11 K, 7607 kPa, x2 = 0.7943	801.1 ± 0.8
308.11 K, 7804 kPa, x2 = 0.6086	818.9 ± 0.8
308.11 K, 7810 kPa, x2 = 0.7943	803 ± 0.8
308.11 K, 8001 kPa, x2 = 0.2003	798.3 ± 0.8
308.11 K, 8005 kPa, x2 = 0.6086	819.7 ± 0.8
308.11 K, 8007 kPa, x2 = 0.7943	804.6 ± 0.8
308.11 K, 8016 kPa, x2 = 0.139	793.3 ± 0.8
308.11 K, 8197 kPa, x2 = 0.7943	806.2 ± 0.8
308.11 K, 8209 kPa, x2 = 0.6086	820.4 ± 0.8
308.11 K, 8414 kPa, x2 = 0.7943	807.8 ± 0.8
308.11 K, 8511 kPa, x2 = 0.2003	798.9 ± 0.8
308.11 K, 8530 kPa, x2 = 0.139	793.9 ± 0.8
308.11 K, 8600 kPa, x2 = 0.6086	821.7 ± 0.8
308.11 K, 8618 kPa, x2 = 0.7943	809.6 ± 0.8
308.11 K, 8796 kPa, x2 = 0.7943	810.8 ± 0.8
308.11 K, 8810 kPa, x2 = 0.6086	822.4 ± 0.8
308.11 K, 8990 kPa, x2 = 0.139	794.3 ± 0.8
308.11 K, 9000 kPa, x2 = 0.6086	823.1 ± 0.8
308.11 K, 9017 kPa, x2 = 0.7943	812.5 ± 0.8
308.11 K, 9019 kPa, x2 = 0.2003	799.5 ± 0.8
308.11 K, 9101 kPa, x2 = 0.6086	823.3 ± 0.9
308.11 K, 9200 kPa, x2 = 0.6086	823.8 ± 0.9
308.11 K, 9203 kPa, x2 = 0.7943	813.9 ± 0.8
308.11 K, 9400 kPa, x2 = 0.7943	815.3 ± 0.9
308.11 K, 9498 kPa, x2 = 0.139	794.8 ± 0.8
308.11 K, 9607 kPa, x2 = 0.7943	816.6 ± 0.9
308.11 K, 9807 kPa, x2 = 0.7943	818 ± 0.9
308.11 K, 9902 kPa, x2 = 0.7943	818.6 ± 1
308.11 K, 10003 kPa, x2 = 0.2003	800.7 ± 0.8
308.11 K, 10047 kPa, x2 = 0.2003	800.8 ± 0.8
308.12 K, 4780 kPa, x2 = 0.4248	807.5 ± 0.8
308.12 K, 5038 kPa, x2 = 0.4248	808.2 ± 0.8
308.12 K, 5326 kPa, x2 = 0.4248	808.8 ± 0.8
308.12 K, 5517 kPa, x2 = 0.4248	809.2 ± 0.8
308.12 K, 6029 kPa, x2 = 0.4248	810.3 ± 0.8
308.12 K, 6505 kPa, x2 = 0.4248	811.3 ± 0.8
308.12 K, 6515 kPa, x2 = 0.4248	811.4 ± 0.8
308.12 K, 6714 kPa, x2 = 0.4248	811.8 ± 0.8
308.12 K, 7035 kPa, x2 = 0.4248	812.4 ± 0.8
308.12 K, 7207 kPa, x2 = 0.4248	812.8 ± 0.8
308.12 K, 7302 kPa, x2 = 0.9492	699.6 ± 2
308.12 K, 7402 kPa, x2 = 0.9492	704.9 ± 2
308.12 K, 7501 kPa, x2 = 0.4248	813.4 ± 0.8
308.12 K, 7605 kPa, x2 = 0.9492	713.8 ± 1.7
308.12 K, 7700 kPa, x2 = 0.4248	813.8 ± 0.8
308.12 K, 7802 kPa, x2 = 0.9492	720.9 ± 1
308.12 K, 8002 kPa, x2 = 0.9492	728 ± 1.3
308.12 K, 8024 kPa, x2 = 0.4248	814.4 ± 0.8
308.12 K, 8204 kPa, x2 = 0.9492	734.5 ± 1
308.12 K, 8404 kPa, x2 = 0.9492	740.3 ± 1.1
308.12 K, 8605 kPa, x2 = 0.9492	745.7 ± 1.1
308.12 K, 8606 kPa, x2 = 0.4248	815.6 ± 0.8
308.12 K, 8802 kPa, x2 = 0.4248	816 ± 0.8
308.12 K, 8802 kPa, x2 = 0.9492	750.6 ± 0.9
308.12 K, 9002 kPa, x2 = 0.4248	816.4 ± 0.8
308.12 K, 9004 kPa, x2 = 0.9492	755.4 ± 1
308.12 K, 9201 kPa, x2 = 0.9492	759.7 ± 0.9
308.12 K, 9408 kPa, x2 = 0.9492	764 ± 1
308.12 K, 9529 kPa, x2 = 0.4248	817.3 ± 0.8
308.12 K, 9610 kPa, x2 = 0.9492	768 ± 1
308.12 K, 9805 kPa, x2 = 0.9492	771.5 ± 0.9
308.12 K, 9898 kPa, x2 = 0.4248	818 ± 0.8
308.12 K, 10003 kPa, x2 = 0.9492	774.9 ± 1
308.12 K, 10202 kPa, x2 = 0.9492	778 ± 0.9
308.12 K, 10405 kPa, x2 = 0.9492	780.9 ± 0.9
308.12 K, 10617 kPa, x2 = 0.9492	783.7 ± 0.9
308.12 K, 10807 kPa, x2 = 0.9492	785.9 ± 0.9
308.13 K, 7456 kPa, x2 = 0.9715	611.7 ± 4.1
308.13 K, 7502 kPa, x2 = 0.9715	636.2 ± 4.7
308.13 K, 7992 kPa, x2 = 0.9715	680.6 ± 1.8
308.13 K, 8522 kPa, x2 = 0.9715	706.8 ± 1.2
308.13 K, 8997 kPa, x2 = 0.9715	724.3 ± 1.1
308.13 K, 9508 kPa, x2 = 0.9715	739.8 ± 1
308.13 K, 10027 kPa, x2 = 0.9715	752.9 ± 1
308.13 K, 10521 kPa, x2 = 0.9715	763.7 ± 0.9
308.13 K, 11017 kPa, x2 = 0.9715	773.2 ± 0.9
308.13 K, 11500 kPa, x2 = 0.9715	781.6 ± 0.9
308.13 K, 12008 kPa, x2 = 0.9715	789.6 ± 0.9
308.13 K, 12520 kPa, x2 = 0.9715	797.2 ± 0.9
308.13 K, 13012 kPa, x2 = 0.9715	803.8 ± 0.9
308.13 K, 13520 kPa, x2 = 0.9715	810.4 ± 0.9
308.13 K, 14014 kPa, x2 = 0.9715	816.4 ± 0.9
308.13 K, 14520 kPa, x2 = 0.9715	822.1 ± 0.9
308.13 K, 15000 kPa, x2 = 0.9715	827.3 ± 0.9
313.08 K, 7544 kPa, x2 = 0.7943	777.4 ± 1.3
313.08 K, 7601 kPa, x2 = 0.7943	778.5 ± 1.1
313.08 K, 7810 kPa, x2 = 0.7943	780.8 ± 0.9
313.08 K, 8013 kPa, x2 = 0.7943	783 ± 0.9
313.08 K, 8205 kPa, x2 = 0.7943	784.9 ± 0.9
313.08 K, 8410 kPa, x2 = 0.7943	786.8 ± 0.9
313.08 K, 8593 kPa, x2 = 0.7943	788.4 ± 0.8
313.08 K, 8800 kPa, x2 = 0.7943	790.3 ± 0.8
313.08 K, 8999 kPa, x2 = 0.7943	792.2 ± 0.8
313.08 K, 9208 kPa, x2 = 0.7943	794 ± 0.8
313.08 K, 9405 kPa, x2 = 0.7943	795.7 ± 0.8
313.08 K, 9619 kPa, x2 = 0.7943	797.5 ± 0.8
313.08 K, 9803 kPa, x2 = 0.7943	799 ± 0.8
